# Laboratory results: US8440790B2, “Crystal structure of the CCZ-LZ domain of NEMO” (Les Laboratoires Servier, priority 2008, dated 2013)
# Key:
# NF-κB pathway = test: Functional complementation in NEMO-deficient mouse embryo fibroblasts (Igκ-luciferase reporter, TNFα stimulation); assay type: cell-based; conditions: NEMO-deficient MEF transiently transfected with NEMO variant and Igκ-luciferase reporter; TNFα stimulation for 24 hours; compared with wild-type NEMO
# Excerpt: The capabilities of the wild-type NEMO protein and of the above-defined mutant NEMO proteins in restoring activation of the NF-κB pathway in response to the proinflammatory cytokine TNF-α are compared and illustrated in FIG. 5. For that purpose, NEMO-deficient mouse embryo fibroblasts (MEF) are transiently co-transfected on the one hand with the plasmid coding for the Igκ-luciferase reporter gene and on the other hand with the plasmids coding for the various proteins, and then stimulated with TNFα for 24 hours. The wild-type protein completely restores the NF-κB pathway whereas TNFα-dependent activation of the NF-κB pathway is affected by the mutant proteins in differing degrees.
# NEMO-deficient mouse embryo fibroblasts (MEF) are cultured in cell culture jars and transiently transfected with a mixture containing: 0.2 μg of a plasmid pEF1 coding for β-galactosidase, 0.5 μg of a plasmid containing the Igk-luciferase reporter gene and 2 μg of plasmids expressing the different variants of NEMO. Twenty-four hours after transfection, the cells are activated with TNFα (20 ng/ml) for 24 hours. The cells are then recovered and then lysed in 110 μl of a buffer of 25 mM Tris/Phosphate pH 7.8, 8 mM MgCl2, 1% Triton, 1 mM dithiothreitol, 15% to glycerol to which a cocktail of proteases is added (Roche). […] The activity of the reporter gene is measured.
# [1] = Gel filtration of the wild-type CC2-LZ protein and the mutant F312A; assay type: physicochemical; conditions: CC2-LZ domain of NEMO; compared with wild-type CC2-LZ protein
# Experimental: The gel filtration experiments are carried out at 4° C. on a Superdex 75 HR 10/30 column (Amersham Biosciences). The column is equilibrated in a buffer of Tris/HCl 50 mM pH7.5, NaCl 200 mM, DTE 0.2 mM at 4° C. with a flow rate of 0.5 ml/min. A sample of constant volume (200 μl), at a concentration of 0.3 μM, is injected onto the column at a rate of 0.5 ml/min. The proteins are diluted in the equilibration buffer of the column and allowed to stand at 4° C. for 2 hours before injection in order to allow them to equilibrate. In order to detect elution of the proteins, an RF-10 AXL spectrofluorimeter (Shimadzu) is connected on-line to the AKTA apparatus. The intrinsic fluorescence is recorded, measuring the emission of fluorescence of the tyrosine residues at 310 nm after excitation at 280 nm.
substance,measurement,setting,value
"A323P: human NEMO protein with point mutation Ala323Pro (position 316 in the mouse), cause of incontinentia pigmenti",inhibition of TNFα-dependent activation of the NF-κB pathway,NF-κB pathway,95%
"F312A: human NEMO / CC2-LZ protein with point mutation Phe312Ala (position 305 in the mouse), within the ubiquitin-binding site",inhibition of TNFα-dependent activation of the NF-κB pathway,NF-κB pathway,78%
same,effect of the mutation on the stability of the dimer (elution profile on gel filtration),[1],does not affect the stability of the dimer
